Like-named read-outs stand apart in the source and are kept apart here.

One assay has as its target T1, cyclooxygenase (Mus musculus, UniProt P22437).
T1 construct: A cell suspension containing peritoneal cells of male mice 8-10 weeks old was obtained; endogenous in cells; host or cells: mouse peritoneal macrophages (male mice 8-10 weeks old), zymosan-stimulated
T1 sequence (P22437 27-602): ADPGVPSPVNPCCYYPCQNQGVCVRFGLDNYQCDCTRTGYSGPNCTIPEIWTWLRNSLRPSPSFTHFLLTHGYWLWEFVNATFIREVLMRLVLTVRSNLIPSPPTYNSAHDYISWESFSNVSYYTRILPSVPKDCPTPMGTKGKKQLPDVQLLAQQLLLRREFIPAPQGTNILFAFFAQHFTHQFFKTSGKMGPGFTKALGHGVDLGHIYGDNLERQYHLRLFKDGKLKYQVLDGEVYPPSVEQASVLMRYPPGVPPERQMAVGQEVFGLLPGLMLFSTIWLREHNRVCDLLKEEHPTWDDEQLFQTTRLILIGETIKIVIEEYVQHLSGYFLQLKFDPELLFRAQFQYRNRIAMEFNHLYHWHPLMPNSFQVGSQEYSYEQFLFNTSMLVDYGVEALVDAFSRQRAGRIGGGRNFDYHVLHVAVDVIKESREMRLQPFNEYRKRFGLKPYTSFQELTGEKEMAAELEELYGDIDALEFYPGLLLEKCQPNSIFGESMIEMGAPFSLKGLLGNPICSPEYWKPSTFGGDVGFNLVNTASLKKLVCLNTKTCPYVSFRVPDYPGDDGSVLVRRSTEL
The assay can be described thus: Cyclooxygenase inhibition: release of 6-keto-PGF1 α from zymosan-stimulated mouse peritoneal macrophage cells. The format is cell-based. The note with it: 10^-5 mol/l, read-out: In vitro % inhibition effect on the release of 6-keto-PGF1 α. The source says:
5. In vitro determination of cyclooxygenase inhibition and 5-lipoxygenase inhibition.
After activation of the cell, arachidonic acid contained in cell membranes is metabolized in two ways. Leukotrienes, inter alia leukotriene C4, are formed under the action of the enzyme 5-lipoxygenase (5-LO), and prostanoids are formed under the action of the enzyme cyclooxygenase (CO). In in vitro systems, the metabolites are secreted from the cell.
To investigate the cyclooxygenase-inhibiting and the 5-lipoxygenase-inhibiting properties, the inhibitory effect of the test substances on the biosynthesis of the arachidonic acid derivatives leukotriene C4 (LTC4) and 6-ketoprostaglandin F1 α (6-keto-PGF1 α) is determined in vitro on mouse peritoneal macrophage cells. This was accomplished by determining the LTC4 and 6-keto-PGF1 α contents in a culture medium of mouse peritoneal macrophage cells by zymosan stimulation as described by Scott et al. (J. Exp. Med. 152 (1980), 324-335) and by Fradin et al. (Prostaglandins, 33 (1987), 579-589).
A cell suspension containing peritoneal cells of male mice 8-10 weeks old was obtained in a known manner. A commercially available cell culture solution (RPMI 1640 from Messrs. Gibco) was used to which heparin (I0 international units/ml) and antibiotics were added according to the recipe of Bonney et al. (Biochem. J. 176 (1978) 422-433). The cell suspension was adjusted to a cell concentration of 10^6 cells per ml and distributed uniformly on titer plates containing […] (wells). These were kept for two hours in a humidified incubator filled with air enriched with 7% CO2. Cells not adhering to the titer cell walls were then removed by washing. The remaining macrophage cells adhering to the walls were incubated for about 12 hours in a suspension medium to which 0.1% bovine serum albumin (BSA) were added. The suspension medium was then replaced by a Hanks balanced salt solution (HBSS) containing 10 mM Hepes (hydroxyethyl-piperazinoethanesulfonic acid), to which a 0.1% strength solution of the test substances in aqueous, 1% strength dimethylformamide or only the solvent had been added. After 15 minutes the arachidonic acid metabolism was stimulated by adding 10 particles of zymosan (=glycoproteinmixture, isolated from cell walls of beer yeast, Saccharomyces cerevisiae, manufactured by Sigma Chemical Co., Munich) per titer cell. After 2 hours, samples of each of the supernatant liquids were investigated for their 6-keto-PGF1 α and LTC4 contents by means of an enzyme immunoassay (EIA) carried out by the method of Pradelles et al. (Analytical Chem. 57 (1985), 1170-1173). The determination of LTC4 and the determination of 6-keto-PGF1 α were each carried out in comparison with a comparative scale on suitable dilutions of the samples (1:50 to 1:250 for the LTC4 determination and 1:250 to 1:1250 for the 6-keto-PGF1 α determination). To determine the inhibitory effect of a 10^-5 molar concentration of the compounds, the amount of reference eicosanoids was determined and the inhibitory effect was calculated from this in % inhibition compared to the measurements of the zymosan controls.

For the next assay, the target named is T2, histamine (H1) receptor (Cavia porcellus, UniProt P31389).
T2 construct: isolated smooth muscle of the guinea-pig ileum; from tissue; host or cells: isolated ileum segments of Dunkin Hartley guinea-pigs
T2 sequence (P31389 whole entry): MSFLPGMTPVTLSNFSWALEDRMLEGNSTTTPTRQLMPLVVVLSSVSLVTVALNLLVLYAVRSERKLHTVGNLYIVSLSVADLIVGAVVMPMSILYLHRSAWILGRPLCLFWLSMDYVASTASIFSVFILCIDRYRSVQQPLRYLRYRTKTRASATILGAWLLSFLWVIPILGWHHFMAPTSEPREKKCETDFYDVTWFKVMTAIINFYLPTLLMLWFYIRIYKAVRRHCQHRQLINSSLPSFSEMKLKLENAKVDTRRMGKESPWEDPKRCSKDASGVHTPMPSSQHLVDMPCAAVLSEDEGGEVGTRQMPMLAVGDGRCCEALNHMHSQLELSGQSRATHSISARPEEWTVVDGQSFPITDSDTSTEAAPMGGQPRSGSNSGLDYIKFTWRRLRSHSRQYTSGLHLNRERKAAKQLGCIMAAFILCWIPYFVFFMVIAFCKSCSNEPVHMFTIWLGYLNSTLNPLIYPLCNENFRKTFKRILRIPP
The assay can be described thus: Antihistamine (H1) effect: inhibition of histamine-induced contractions of isolated guinea-pig ileum in vitro. The format is cell-based, guinea-pig (Dunkin Hartley). The note with it: histamine 5 × 10^-6 mol/l, test substance 10^-6 mol/l. Here is the method: 3. Investigation of the antihistamine (H1) effect based on histamine (H1) receptor antagonism in vitro.
To investigate the histamine (H1) receptor antagonism of the substances, the inhibitory effect thereof on histamine-induced contractions of the smooth musculature of isolated organ was determined in vitro. Isolated strips of organ from the ileum were used. In an organ bath of physiological saline solution, they react to addition of histamine by contracting. Addition of the compounds of the invention decreases this histamine-induced contraction of the smooth musculature of the ileum strips. The extent of decrease of the contraction is an indication of the antihistamine (H1) activity of the compounds. The investigation is carried out analogously to the method originally described by Magnus (Pflugers Arch. 102, 123 (1904)).
Experimental description of the determination of the inhibitory effect on the contraction induced by a 5×10^-6 molar histamine concentration on isolated smooth muscle of the guinea-pig ileum.
For the test, 1.5 cm long segments of the ileum from Dunkin Hartley guinea-pigs having a body weight of 300-500 g were employed. Each strip was placed in an organ bath of 10 ml of Krebs-Henseleit physiological saline solution and attached to a customary apparatus for isotonically measuring changes in length of the ileum strip (automated Celaster measuring apparatus) so that the tissue is under a tension of 1 g. The bath was kept at a pH of 7.4 and aerated with a mixture of 5% CO2 and 95% O2. After an equilibration phase, an isotonic contraction of the tissue was produced by adding histamine in a final concentration of 5×10^-6 mol/l and was washed out again after a contact time of 30 seconds. Only those tissues in which three reproducible contractions were obtained at 10 minute intervals were used in the subsequent test. The test substances were then added in a final concentration of 10^-6 mol/l, and after a contact time of 30 seconds histamine was again added up to a concentration of 5×10^-6 mol/l. The contractions which occurred were measured over the course of 30 seconds. The tissue was then washed several times over a period of 10 minutes. A contraction challenge was then induced again by addition of histamine. The contractions which occurred were again measured over 30 seconds. The difference between the amplitude of the contraction obtained by histamine addition alone and the amplitude of the contraction obtained in the presence of the test substance was determined and calculated as % inhibition.
The inhibitory effects on the contractions induced by histamine 30 seconds after administration of the test substance and on the contractions induced by addition of histamine 10 minutes afterward are given in the table.

Where [1] appears, read: after 30 sec., read-out: in vitro (H1) receptor antagonism % inhibitory effect on histamine-induced contractions of the Ileum, after 30 sec.
The mark [2] stands for this setting: after 10 min. (after washing), read-out: in vitro (H1) receptor antagonism % inhibitory effect on histamine-induced contractions of the Ileum, after 10 min.

As for `CCCCCCCC1CCc2cccc3c(CCN4CCN(c5cc(C)ccn5)CC4)c(C)n1c23` (centres unmarked) [Example 4, 4-n-heptyl-5,6-dihydro-2-methyl-1-{2-[4-(4-methylpyridin-2-yl)piperazin-1-yl]ethyl}-4H-pyrrolo[3,2,1-ij]-quinoline], the inhibition at 10 µM at cyclooxygenase was 20%.

Consider `COc1ccc(-c2c(CCN3CCN(c4cc(C)ccn4)CC3)c3cccc4c3n2CCC4)cc1` [Example 7, 2-(4-methoxy-phenyl)-1-{2-[4-(4-methylpyridin-2-yl)piperazin-1-yl]ethyl}-5,6-dihydro-4H-pyrrolo[3,2,1-ij]quinoline], for which, on cyclooxygenase, the inhibition at 10 µM was determined as 49%. Consider `Cc1ccnc(N2CCN(CCc3c(-c4ccc(O)cc4)n4c5c(cccc35)CCC4)CC2)c1` [Example 8, 2-(4-hydroxyphenyl)-1-{2-[4-(4-methylpyridin-2-yl)piperazin-1-yl]ethyl}-5,6-dihydro-4H-pyrrolo[3,2,1-ij]quinoline], for which the inhibition at 10 µM at cyclooxygenase came out at 74%.

As for `Cc1ccnc(N2CCN(CCc3c(C)n4c5c(cc([N+](=O)[O-])cc35)CCC4)CC2)c1` [Example 10, 2-Methyl-8-nitro-1-{2-[4-(4-methylpyridin-2-yl)-piperazin-1-yl]ethyl}-5,6-dihydro-4H-pyrrolo[3,2,1-ij]quinoline], the inhibition at 1 µM at histamine (H1) receptor (setting [1]) was 47%; at histamine (H1) receptor (setting [2]), 92%.

Regarding `Cc1ccnc(N2CCN(CCc3c(C)n4c5c(cccc35)SCC4)CC2)c1` [Example 11, 5-Methyl-6-{2-[4-(4-methylpyridin-2-yl)piperazin-1-yl]ethyl}-2,3-dihydro-pyrrolo[1,2,3-de]-1,4-benzo-thiazine], the inhibition at 1 µM came to 21% on histamine (H1) receptor (setting [1]) and 84% on histamine (H1) receptor (setting [2]). Consider `Cc1ccnc(N2CCN(CCc3c(-c4ccc(OCCCCO)cc4)n4c5c(cccc35)CCC4)CC2)c1` [Example 12, 2-[4-(4-Hydroxybutyloxy)-phenyl]-1-{2-[4-(4-methylpyridin-2-yl)piperazin-1-yl]ethyl}-5,6-dihydro-4H-pyrrolo[3,2,1-ij]quinoline], for which the inhibition at 10 µM on cyclooxygenase worked out at 53%.

On to `Cc1ccnc(N2CCN(CCc3cn4c5c(cccc35)CCC4)CC2)c1` [Example 13, 5,6-Dihydro-1-{2-[4-(4-methylpyridin-2-yl)piperazin-1-yl]ethyl}-4H-pyrrolo[3,2,1-ij]quinoline], for which the inhibition at 1 µM at histamine (H1) receptor (setting [1]) worked out at 33%; at histamine (H1) receptor (setting [2]), 63%. Take `CCc1c(C(O)CN2CCN(c3cc(C)ccn3)CC2)c2cccc3c2n1CCC3` (centres unmarked) [Example 14, 2-Ethyl-5,6-dihydro-1-{2-[4-(4-methylpyridin-2-yl)piperazin-1-yl]-1-hydroxyethyl}-4H-pyrrolo[3,2,1-ij]quinoline]: the inhibition at 10 µM at cyclooxygenase was found to be 25%. With `CCc1c(CCN2CCN(c3cc(C)ccn3)CC2)c2cccc3c2n1CCC3` [Example 15, 2-Ethyl-5,6-dihydro-1-{2-[4-(4-methylpyridin-2-yl)piperazin-1-yl]ethyl}-4H-pyrrolo[3,2,1-ij]quinoline], the figures for the inhibition at 1 µM at histamine (H1) receptor (setting [1]) and on histamine (H1) receptor (setting [2]) were 29% and 78%, respectively. Consider `CC(=O)Oc1cc2c3c(c1)c(CCN1CCN(c4cc(C)ccn4)CC1)c(C)n3CCC2` [Example 24, 8-Acetoxy-5,6-dihydro-2-methyl-1-{2-[4-(4-methyl-pyridin-2-yl)piperazin-1-yl]ethyl}-4H-pyrrolo[3,2,1-ij]quinoline], for which the figures for the inhibition at 1 µM on histamine (H1) receptor (setting [1]) and on histamine (H1) receptor (setting [2]) were 81% and 94%, respectively. For the molecule `Cc1ccnc(N2CCN(CCc3c(-c4ccc(F)cc4)n4c5c(cccc35)CCC4)CC2)c1` [Example 47], the inhibition at 10 µM on cyclooxygenase stood at 69%.

As for `Cc1ccnc(N2CCN(CCc3c(C)n4c5c(cc(C)cc35)CCC4)CC2)c1` [Example 54], the inhibition at 1 µM came to 8% at histamine (H1) receptor (setting [1]) and 94% at histamine (H1) receptor (setting [2]). As for `Cc1cc2c3c(c1)c(CCN1CCC(C(=O)c4ccc(F)cc4)CC1)c(C)n3CCC2` [Example 55], the inhibition at 10 µM on cyclooxygenase worked out at 41%. On to `Cc1ccnc(N2CCN(CCc3c(C)n4c5c(cccc35)C(C)CC4)CC2)c1` (centres unmarked) [Example 57], for which the inhibition at 1 µM on histamine (H1) receptor (setting [1]) was 20%; at histamine (H1) receptor (setting [2]), 80%. For the molecule `COc1ccc(C2CCc3cccc4c(CCN5CCN(c6cc(C)ccn6)CC5)c(C)n2c34)cc1` (centres unmarked) [Example 59], at cyclooxygenase, the inhibition at 10 µM was determined as 43%. As to `Cc1ccnc(N2CCN(CCc3c(C)n4c5c(cc(NC(=O)C(C)C)cc35)CCC4)CC2)c1` [Example 60], the inhibition at 1 µM on histamine (H1) receptor (setting [1]) stood at 9%; at histamine (H1) receptor (setting [2]), 37%. As for `Cc1ccnc(N2CCN(CCc3c(C)n4c5c(cccc35)CCC4c3ccc(O)cc3)CC2)c1` (centres unmarked) [Example 61], the inhibition at 10 µM on cyclooxygenase was 65%. Regarding `CCCCC1CCc2cccc3c(CCN4CCN(c5cc(C)ccn5)CC4)c(C)n1c23` (centres unmarked) [Example 73, 4-n-butyl-5,6-dihydro-2-methyl-1-{2-[4-(4-methylpyridin-2-yl)piperazin-1-yl]ethyl}-4H-pyrrolo[3,2,1-ij]quinoline], the inhibition at 10 µM at cyclooxygenase came to 29%. Same read-out and setting: the same measure for `Cc1ccnc(N2CCN(CCc3c(C)n4c5c(cc(Cc6ccccc6)cc35)CCC4)CC2)c1` [Example 77]: 42%.

Turning to `Cc1ccnc(N2CCN(CCc3c(C)n4c5c(c(Cl)cc(Cl)c35)OCC4)CC2)c1` [Example 79], the inhibition at 10 µM on cyclooxygenase was found to be 52%.

In the case of `Cc1ccnc(N2CCN(CCc3c(C)n4c5c(cc(N(C)C)cc35)CCC4)CC2)c1` [Example 81], the inhibition at 10 µM on cyclooxygenase was determined as 16%.

These data come from patent US5324725A, “7-fused 2-(piperazinoalkyl) indole derivatives, intermediates and compositions thereof” (Kali-Chemie Pharma GmbH, priority 1991, dated 1994).
